These results are taken from US9963434B2, “N-arylmethyl sulfonamide negative modulators of NR2A” (LUC THERAPEUTICS, priority 2013, dated 2018).

This test deals with NR1/NR2A (Homo sapiens (Human), UniProt Q05586+Q12879). Briefly: FDSS Ca2+ influx inhibition assay in HEK293 cells expressing NR1/NR2A. It is filed as cell-based. Conditions: 3 μM glutamate, 3 μM glycine, 1 mM Ca2+. Summed up:
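Fluo-8-loaded HEK293 NR1/NR2A cells preincubated 10 min with compound at 10 μM final (0.1% DMSO) in Ca2+/Mg2+-free HBSS with 20 mM HEPES. Stimulated with 3 μM glutamate, 3 μM glycine, 1 mM Ca2+; FDSS recording for 3 min, end/baseline fluorescence ratio compared with MK801.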

Setting [1] is: inhibition relative to MK801, read-out: NR2A IC50.

SMILES strings stand for the structures. Read-outs that look alike come from different tables or passages of the source. Some results are limits rather than exact numbers.

Chain of NR1/NR2A (Q12879 23-1464, other chains not shown): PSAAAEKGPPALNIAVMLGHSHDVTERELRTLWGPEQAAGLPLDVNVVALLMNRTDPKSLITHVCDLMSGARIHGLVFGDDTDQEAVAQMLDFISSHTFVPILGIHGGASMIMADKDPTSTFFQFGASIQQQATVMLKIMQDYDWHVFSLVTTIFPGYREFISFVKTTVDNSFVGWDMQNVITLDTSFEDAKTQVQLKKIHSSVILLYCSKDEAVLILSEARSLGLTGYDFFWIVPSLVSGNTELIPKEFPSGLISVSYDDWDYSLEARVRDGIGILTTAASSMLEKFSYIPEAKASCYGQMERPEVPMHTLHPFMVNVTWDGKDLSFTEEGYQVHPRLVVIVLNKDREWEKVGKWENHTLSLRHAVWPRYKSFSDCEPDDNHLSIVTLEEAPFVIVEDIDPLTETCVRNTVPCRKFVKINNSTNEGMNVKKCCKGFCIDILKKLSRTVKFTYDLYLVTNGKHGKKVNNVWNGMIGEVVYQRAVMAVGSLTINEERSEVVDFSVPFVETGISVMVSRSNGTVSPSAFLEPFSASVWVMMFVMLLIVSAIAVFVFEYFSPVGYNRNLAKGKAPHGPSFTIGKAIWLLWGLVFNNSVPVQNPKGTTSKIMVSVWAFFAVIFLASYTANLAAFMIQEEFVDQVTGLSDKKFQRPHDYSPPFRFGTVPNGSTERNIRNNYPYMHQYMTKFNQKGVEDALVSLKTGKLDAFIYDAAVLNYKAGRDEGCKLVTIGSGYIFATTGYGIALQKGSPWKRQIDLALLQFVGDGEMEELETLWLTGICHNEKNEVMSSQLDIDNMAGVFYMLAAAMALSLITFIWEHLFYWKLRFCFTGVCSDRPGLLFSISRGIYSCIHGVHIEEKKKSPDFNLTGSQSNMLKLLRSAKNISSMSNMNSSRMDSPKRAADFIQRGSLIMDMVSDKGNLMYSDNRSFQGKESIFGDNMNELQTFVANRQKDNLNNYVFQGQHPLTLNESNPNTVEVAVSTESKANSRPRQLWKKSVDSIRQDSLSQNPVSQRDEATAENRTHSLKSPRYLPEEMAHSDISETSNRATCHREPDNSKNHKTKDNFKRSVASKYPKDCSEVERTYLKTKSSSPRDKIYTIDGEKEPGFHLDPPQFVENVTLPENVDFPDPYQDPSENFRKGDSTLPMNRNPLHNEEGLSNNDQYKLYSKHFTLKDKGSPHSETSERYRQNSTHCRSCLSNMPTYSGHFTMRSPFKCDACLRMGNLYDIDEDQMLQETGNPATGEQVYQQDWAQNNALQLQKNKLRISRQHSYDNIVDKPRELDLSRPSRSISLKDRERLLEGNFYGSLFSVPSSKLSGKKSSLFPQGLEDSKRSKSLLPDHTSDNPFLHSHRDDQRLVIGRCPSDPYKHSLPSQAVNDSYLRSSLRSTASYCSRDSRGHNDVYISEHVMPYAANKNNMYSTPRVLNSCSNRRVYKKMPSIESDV

For `Cc1ncc(CNC(=O)c2cnc(CNS(=O)(=O)c3ccc(F)c(Cl)c3)c(C(F)(F)F)n2)s1` [5-(3-chloro-4-fluorobenzenesulfon-amidomethyl)-N-[(2-methyl-1,3-thiazol-5-yl)methyl]-6-(trifluoromethyl)pyrazine-2-carboxamide], the IC50 (read-out: Binned Activity) lay within 0.1 to 1 µM.

As for `O=C(NCc1cncs1)c1ccc(CNS(=O)(=O)c2ccc(F)c(Cl)c2)cn1` [5-(3-chloro-4-fluorobenzenesulfon-amidomethyl)-N-(1,3-thiazol-5-ylmethyl)pyridine-2-carboxamide], the IC50 (read-out: Binned Activity) is 0.1 to 1 µM.

As for `Cc1ncc(CNC(=O)c2ccc(CNS(=O)(=O)c3ccc(F)c(Cl)c3)nn2)s1` [6-(3-chloro-4-fluorobenzenesulfon-amidomethyl)-N-[(2-methyl-1,3-thiazol-5-yl)methyl]pyridazine-3-carboxamide], the IC50 reads like this: under setting [1], 10 µM; (read-out: Binned Activity) > 10 µM.

Take `Cn1cncc1CNC(=O)c1cnc(CNS(=O)(=O)c2ccc(F)c(Cl)c2)cn1` [5-(3-chloro-4-fluorobenzenesulfon-amidomethyl)-N-[(1-methyl-1H-imidazol-5-yl)methyl]pyrazine-2-carboxamide]: the IC50 (read-out: Binned Activity) lay in the range of 1 to 10 µM.

In the case of `Cc1ncc(CNC(=O)c2cnc(CNS(=O)(=O)c3ccc(Cl)c(F)c3)c(C)n2)s1` [5-(4-chloro-3-fluorobenzenesulfon-amidomethyl)-6-methyl-N-[(2-methyl-1,3-thiazol-5-yl)methyl]pyrazine-2-carboxamide], the IC50 (read-out: Binned Activity) was in the range of 1 to 10 µM.

Take `Cc1ncc(CNC(=O)c2cnc(CNS(=O)(=O)c3ccc(Oc4ccccc4)nc3)cn2)s1` [N-[(2-methyl-1,3-thiazol-5-yl)methyl]-5-(6-phenoxypyridine-3-sulfonamidomethyl) pyrazine-2-carboxamide]: the IC50 is, setting by setting: under setting [1], 10 µM; (read-out: Binned Activity) > 10 µM.

In the case of `COc1ccc(CNC(=O)c2ccc(CNS(=O)(=O)c3ccc(F)c(Cl)c3)nn2)cc1` [6-(3-chloro-4-fluorobenzenesulfon-amidomethyl)-N-[(4-methoxyphenyl)methyl] pyridazine-3-carboxamide], the IC50 runs as follows: under setting [1], 10 µM; (read-out: Binned Activity) > 10 µM.

As to `Cc1nnc(CNC(=O)c2cnc(CNS(=O)(=O)c3ccc(F)c(Cl)c3)cn2)s1` [5-(3-chloro-4-fluorobenzenesulfon-amidomethyl)-N-[(5-methyl-1,3,4-thiadiazol-2-yl)methyl]pyrazine-2-carboxamide], for the setting “read-out: Binned Activity”, the IC50 lay in the range of 0.1 to 1 µM.

Consider `O=C(NCc1ncc(C(F)(F)F)cc1Cl)c1ccc(CNS(=O)(=O)c2ccc(F)c(Cl)c2)cn1` [5-(3-chloro-4-fluorobenzenesulfon-amidomethyl)-N-{[3-chloro-5-(trifluoromethyl)pyridin-2-yl]methyl}pyridine-2-carboxamide], for which the IC50 is, setting by setting: under setting [1], 10 µM; (read-out: Binned Activity) > 10 µM.

With `Cc1ccncc1CNC(=O)c1ccc(CNS(=O)(=O)c2ccc(F)c(Cl)c2)nn1` [6-(3-chloro-4-fluorobenzenesulfon-amidomethyl)-N-[(4-methylpyridin-3-yl)methyl]pyridazine-3-carboxamide], the IC50 is, setting by setting: under setting [1], 10 µM; (read-out: Binned Activity) > 10 µM.

As to `COc1ccc(CCNC(=O)c2ccc(CNS(=O)(=O)c3ccc(F)c(Cl)c3)cn2)cc1` [5-(3-chloro-4-fluorobenzenesulfon-amidomethyl)-N-[2-(4-methoxyphenyl)ethyl] pyridine-2-carboxamide], the IC50 under setting [1] stood at 10 µM and the IC50 (read-out: Binned Activity) is > 10 µM.

With `CCc1nc(C(=O)NCc2cnc(C)s2)cnc1CNS(=O)(=O)c1ccc(F)c(Cl)c1` [5-(3-chloro-4-fluorobenzenesulfon-amidomethyl)-6-ethyl-N-[(2-methyl-1,3-thiazol-5-yl)methyl]pyrazine-2-carboxamide], the IC50 (read-out: Binned Activity) is < 0.1 µM.

As for `Cc1nnc(CNC(=O)c2cnc(CNS(=O)(=O)c3ccc(F)c(Cl)c3)cn2)o1` [5-(3-chloro-4-fluorobenzenesulfon-amidomethyl)-N-[(5-methyl-1,3,4-oxadiazol-2-yl)methyl]pyrazine-2-carboxamide], under “read-out: Binned Activity”, the IC50 was 1 to 10 µM.

For `Cc1ccc(CNC(=O)c2cnc(CNS(=O)(=O)c3ccc(F)c(Cl)c3)cn2)n1C` [5-(3-chloro-4-fluorobenzenesulfon-amidomethyl)-N-[(1,5-dimethyl-1H-pyrrol-2-yl)methyl]pyrazine-2-carboxamide], the IC50 (read-out: Binned Activity) lay in the range of 0.1 to 1 µM.

With `O=C(NCc1ccc(Cl)c(F)c1)c1ccc(CNS(=O)(=O)c2ccc(F)c(Cl)c2)cn1` [N-[(4-chloro-3-fluorophenyl)methyl]-5-(3-chloro-4-fluorobenzenesulfon-amidomethyl)pyridine-2-carboxamide], the IC50 under setting [1] worked out at 10 µM and the IC50 (read-out: Binned Activity) is > 10 µM.

`Cc1cc(CNC(=O)c2ccc(CNS(=O)(=O)c3ccc(F)c(Cl)c3)cn2)n(C)n1` [5-(3-chloro-4-fluorobenzenesulfon-amidomethyl)-N-[(1,3-dimethyl-1H-pyrazol-5-yl)methyl]pyridine-2-carboxamide]: the IC50 is 10 µM under setting [1] and > 10 µM (read-out: Binned Activity).

Take `Cc1ncc(CNC(=O)c2ccc(CNC(=O)c3cc(Cl)ccc3F)cn2)s1` [5-{[(5-chloro-2-fluorophenyl)formamido]methyl}-N-[(2-methyl-1,3-thiazol-5-yl)methyl]pyridine-2-carboxamide]: the IC50 is, setting by setting: under setting [1], 10 µM; (read-out: Binned Activity) > 10 µM.

Take `Cc1nnc(CNC(=O)c2ccc(CNS(=O)(=O)c3ccc(F)c(Cl)c3)nc2)s1` [6-(3-chloro-4-fluorobenzenesulfon-amidomethyl)-N-[(5-methyl-1,3,4-thiadiazol-2-yl)methyl]pyridine-3-carboxamide]: the IC50 was 10 µM under setting [1] and > 10 µM (read-out: Binned Activity).

As to `Cc1nc(CNC(=O)c2ccc(CNS(=O)(=O)c3ccc(F)c(Cl)c3)nc2)cs1` [6-(3-chloro-4-fluorobenzenesulfon-amidomethyl)-N-[(2-methyl-1,3-thiazol-4-yl)methyl]pyridine-3-carboxamide], the IC50 is 10 µM under setting [1] and > 10 µM (read-out: Binned Activity).

For `O=C(NCc1ncccc1C(F)(F)F)c1ccc(CNS(=O)(=O)c2ccc(F)c(Cl)c2)cn1` [5-(3-chloro-4-fluorobenzenesulfon-amidomethyl)-N-{[3-(trifluoromethyl)pyridin-2-yl]methyl}pyridine-2-carboxamide], the IC50 was 10 µM under setting [1] and > 10 µM (read-out: Binned Activity).

`O=C(NCc1cnccn1)c1cnc(CNS(=O)(=O)c2ccc(F)c(Cl)c2)cn1` [5-(3-chloro-4-fluorobenzenesulfon-amidomethyl)-N-(pyrazin-2-ylmethyl)pyrazine-2-carboxamide]: the IC50 (read-out: Binned Activity) fell in the range of 1 to 10 µM.

Regarding `O=C(NCc1ncccn1)c1ccc(CNS(=O)(=O)c2ccc(F)c(Cl)c2)cn1` [5-(3-chloro-4-fluorobenzenesulfon-amidomethyl)-N-(pyrimidin-2-ylmethyl)pyridine-2-carboxamide], the IC50 under setting [1] is 10 µM and the IC50 (read-out: Binned Activity) was > 10 µM.

As to `CC(=O)N1CCc2cc(S(=O)(=O)NCc3ccc(C(=O)NCc4cnc(C)s4)nc3)ccc21` [5-(1-acetyl-2,3-dihydro-1H-indole-5-sulfonamidomethyl)-N-[(2-methyl-1,3-thiazol-5-yl)methyl]pyridine-2-carboxamide], the IC50 reads like this: under setting [1], 10 µM; (read-out: Binned Activity) > 10 µM.

For the compound `C[C@@H](NC(=O)c1ccc(CNS(=O)(=O)c2ccc(F)c(Cl)c2)nn1)c1cncs1` [6-(3-chloro-4-fluorobenzenesulfon-amidomethyl)-N-[(1R)-1-(1,3-thiazol-5-yl)ethyl]pyridazine-3-carboxamide], the IC50 under setting [1] was determined as 10 µM and the IC50 (read-out: Binned Activity) is > 10 µM.

On to `Cc1ncc(CNC(=O)c2cnc(CNS(=O)(=O)c3ccc(Cl)c(F)c3)cn2)s1` [5-(4-chloro-3-fluorobenzenesulfon-amidomethyl)-N-[(2-methyl-1,3-thiazol-5-yl)methyl]pyrazine-2-carboxamide], for which the IC50 under setting [1] came to 10 µM and the IC50 (read-out: Binned Activity) is > 10 µM.

On to `O=C(NCc1cocn1)c1ccc(CNS(=O)(=O)c2ccc(F)c(Cl)c2)nc1` [6-(3-chloro-4-fluorobenzenesulfon-amidomethyl)-N-(1,3-oxazol-4-ylmethyl)pyridine-3-carboxamide], for which the IC50 was 10 µM under setting [1] and > 10 µM (read-out: Binned Activity).

`CN(C)CCNC(=O)c1ccc(CNS(=O)(=O)c2ccc(F)c(Cl)c2)cn1` [5-(3-chloro-4-fluorobenzenesulfon-amidomethyl)-N-[2-(dimethylamino)ethyl] pyridine-2-carboxamide]: the IC50 was 10 µM under setting [1] and > 10 µM (read-out: Binned Activity).

Take `Cc1nc(C)c(CNC(=O)c2ccc(CNS(=O)(=O)c3ccc(F)c(Cl)c3)nc2)s1` [6-(3-chloro-4-fluorobenzenesulfon-amidomethyl)-N-[(dimethyl-1,3-thiazol-5-yl)methyl]pyridine-3-carboxamide]: the IC50 is, setting by setting: under setting [1], 10 µM; (read-out: Binned Activity) > 10 µM.

Regarding `O=C(NCc1nccs1)c1cnc(CNS(=O)(=O)c2ccc(F)c(Cl)c2)cn1` [5-(3-chloro-4-fluorobenzenesulfon-amidomethyl)-N-(1,3-thiazol-2-ylmethyl)pyrazine-2-carboxamide], the IC50 reads like this: under setting [1], 10 µM; (read-out: Binned Activity) > 10 µM.

On to `CN(C)CCNC(=O)c1ccc(CNS(=O)(=O)c2ccc(F)c(Cl)c2)nc1` [6-(3-chloro-4-fluorobenzenesulfon-amidomethyl)-N-[2-(dimethylamino)ethyl] pyridine-3-carboxamide], for which the IC50 reads like this: under setting [1], 10 µM; (read-out: Binned Activity) > 10 µM.

Take `O=C(NCc1ccccn1)c1ccc(CNS(=O)(=O)c2ccc(F)c(Cl)c2)nn1` [6-(3-chloro-4-fluorobenzenesulfon-amidomethyl)-N-(pyridin-2-ylmethyl)pyridazine-3-carboxamide]: the IC50 is, setting by setting: under setting [1], 10 µM; (read-out: Binned Activity) > 10 µM.

Consider `Cc1ncc(CNC(=O)c2cnc(CNC(=O)c3cccc(Cl)c3)cn2)s1` [5-{[(3-chlorophenyl)formamido]methyl}-N-[(2-methyl-1,3-thiazol-5-yl)methyl]pyrazine-2-carboxamide], for which the IC50 is 10 µM under setting [1] and > 10 µM (read-out: Binned Activity).
